From paper PMC9017425, “Integrative Analysis of Pharmacokinetic and Metabolomic Profiles for Predicting Metabolic Phenotype and Drug Exposure Caused by Sotorasib in Rats” (Frontiers in Oncology, 2022)
Like-named read-outs stand apart in the source and are kept apart here.

Assays:
[1] = Stability of sotorasib in rat plasma QC samples under different storage conditions; type: in vitro ADME; conditions: for Post-preparation stability, measured concentration Mean ± SD / Room temperature stability, measured concentration Mean ± SD / Freeze–thaw stability, measured concentration Mean ± SD / Long-term stability, measured concentration Mean ± SD: n = 6; for Room temperature stability, measured concentration Mean ± SD: rat plasma, ambient temperature; for Freeze–thaw stability, measured concentration Mean ± SD: three cycles −80°C to ambient temperature; for Long-term stability, measured concentration Mean ± SD: −80°C for 3 months
From the text: Stability was investigated at LQC and HQC concentrations in six replicates. […] If the %Bias is within ±15%, the stability is considered acceptable.

[2] = set-up: method as in PMID 33283304; conditions: oral administration, 50 mg/kg; cited from earlier work
[3] = set-up: method as in PMID 33957355; conditions: mice, single oral 20 mg/kg; cited from earlier work
[4] = Working solution stability of sotorasib; type: physicochemical; conditions: −80°C for 10 days, n = 6
Experimental: Stock solutions of sotorasib and IS were equipped using ACN at a concentration of 1.0 mg/ml and further diluted for the calibration standards and quality control (QC) samples at a final concentration of 500 µg/ml separately. The working IS solution was prepared in MeOH at a concentration of 10 ng/ml. The working calibration solutions of sotorasib were completed in dilution (MeOH/water = 1:1, v/v) to obtain concentrations of 5, 10, 20, 50, 100, 100, 200, 500, 1,000, 2,000, and 5,000 ng/ml. Similarly, the QC working solutions of analytes were prepared to obtain final concentrations of 10, 200, and 4,000 ng/ml. All solutions were stored in a −80°C freezer pending analysis. For the PK study, calibrations were made in blank rat plasma to achieve a nominal concentration range of 0.5–500 ng/ml. QC plasma samples were prepared in blank rat plasma at nominal concentrations of 1, 20, and 400 ng/ml. Stability was investigated at LQC and HQC concentrations in six replicates. The stability conditions incorporated the short-term (at ambient temperature for 24 h), freeze–thaw (−80°C to ambient temperature, three sequential cycles), post-preparation (autosampler, 24 h), and long-term (−80°C for 3 months) status. If the %Bias is within ±15%, the stability is considered acceptable.

[5] = Pharmacokinetic study of sotorasib in rats after oral administration (HPLC-MS/MS of plasma); type: in vivo; conditions: male, Sprague-Dawley, rat
Experimental: For the PK study, a chromatographic system of Shimadzu LC-20ADXR (Kyoto, Japan) coupled with a mass spectrometer (QTRAP 5500; SCIEX, Concord, Canada) was utilized for chromatographic separation and mass quantitation ([19]). The column temperature was set to 40°C on a reversed-phase C18 column (50 mm × 2.1 mm i.d., 3.5 μm) (XBrige; Waters, Milford, MA, USA), and the total run time was 3.0 min. Both mobile phases contained 0.1% formic acid. Gradient elution was adopted to comply with the compounds’ baseline separation (0–0.1 min, 90% water phase; 0.1–1.2 min, 10% water phase; 1.2–2.2 min, 0% water phase; and 2.2–3.0 min, 90% water phase). The flow rate was fixed at 0.4 ml/min with an injection volume of 2 μl. A time-efficient washing procedure composed of MeOH/water/ACN/IPA (1:1:1:1, v/v/v/v) was applied during the entire analyses. Multiple reaction monitoring (MRM) was utilized with the following parameters: ion spray voltage, 5,500 V; temperature, 550°C; curtain gas, 20.0 psi; ion source, gas 1 at 55.0 psi; and turbo ion source, gas 2 at 55.0 psi. A proton adduct [M+H]^+ ion and double MRM transitions were used, which were set at m/z 561.4→317.1 (qualifier) and m/z 561.4→134.1 (quantifier) for sotorasib and at 237.0→194.1 for the IS.
During the PK study, all unknown plasma samples were mixed for 1 min and 20 μl aliquot of plasma was pipetted into an Eppendorf centrifuge tube. Protein precipitation was adopted for the preparation of the sample. After the addition of 10 μl IS working solution (10 ng/ml) and 80 μl MeOH, proteins were extracted by vortex mixing for approximately 30 s. The supernatant was centrifuged at 13,500 rpm for 10 min at 4°C. The extraction solutions were then pipetted into autosampler vials.
Six Sprague–Dawley rats (180–220 g, 8-week-old males; animal license: SCXK-2019-0008) were purchased from Beijing Vital River Laboratory Animal Technologies Co., Ltd. (Beijing, China). All rats were fed in a specific pathogen-free (SPF) conditioned room to allow acclimatization for 1 week. Animal experiments were implemented in line with the Guidelines for the Care and Use of Laboratory Animals, and animal ethics was approved by Beijing Chao-Yang Hospital, Capital Medical University. Rats were orally administered sotorasib dissolved with 1% Tween-80 and 2% hydroxypropyl methylcellulose (HPMC) in water at a dose of 10 mg/kg. Biological samples (approximately 500 μl) were collected from ophthalmic veins into heparin-anticoagulated collection tubes before administration and at 15 min, 30 min, and 1, 1.5, 2, 2.5, 3, 4, and 8 h after administration. Plasma samples were acquired by direct centrifugation at 3,500 rpm for 10 min at 4°C.
Raw data files were processed and checked using Analyst 1.6.3 and MultiQuant 3.0.1 (SCIEX, Concord, Canada). The concentrations of the analytes were calculated according to the calibration curve. Pharmacokinetic parameters, such as C max and the area under the curve (AUC), were calculated using Phoenix WinNonLin software (Pharsight 8.3, Mountain View, CA, USA). Pearson’s correlation was employed to investigate the correlation between the metabolomic data and PK parameters using IBM SPSS 26.0 (Armonk, NY, USA). SIMCA-P software (v14.1; Umetric, Umeå, Sweden) was employed to build mathematical models, including unsupervised principal component analysis (PCA), supervised orthogonal projection to latent structures discriminant analysis (OPLS-DA), and partial least squares (PLS). Compounds with values of variable importance in the projections (VIP) >1 and statistical significance of p < 0.05 were selected for further identification and metabolic pathway analysis. One hundred or 200 random permutation tests were employed to examine overfitting and random effects, which can assess the predictive ability of the model. Meanwhile, significant variables with p < 0.05 and fold change (FC) >2 or <0.5 were considered potential biomarkers. […]

[6] = rats, 10 mg/kg, n = 6, mean ± SD

Compound: C=CC(=O)N1CCN(c2nc(=O)n(-c3c(C)ccnc3C(C)C)c3nc(-c4c(O)cccc4F)c(F)cc23)[C@@H](C)C1 [Sotorasib]
- stability under several storage conditions in plasma or in solution ([1]; ambient temperature 6 h, three freeze–thaw cycles, autosampler 24 h, working solution −80°C 10 days, −80°C 3 months): stable
- Post-preparation stability, measured concentration Mean ± SD ([1]; nominal 1 ng/ml, autosampler 24 h): 1.07 ± 0.06 ng/mL
- Room temperature stability, measured concentration Mean ± SD ([1]; nominal 1 ng/ml): 1.03 ± 0.10 ng/mL
- Freeze–thaw stability, measured concentration Mean ± SD ([1]; nominal 1 ng/ml): 1.06 ± 0.07 ng/mL
- Long-term stability, measured concentration Mean ± SD ([1]; nominal 1 ng/ml): 1.01 ± 0.07 ng/mL
- Post-preparation stability, measured concentration Mean ± SD ([1]; nominal 400 ng/ml, autosampler 24 h): 441.20 ± 10.76 ng/mL
- Room temperature stability, measured concentration Mean ± SD ([1]; nominal 400 ng/ml): 434.00 ± 8.07 ng/mL
- Freeze–thaw stability, measured concentration Mean ± SD ([1]; nominal 400 ng/ml): 448.60 ± 6.19 ng/mL
- Long-term stability, measured concentration Mean ± SD ([1]; nominal 400 ng/ml): 399.67 ± 20.10 ng/mL
- AUC0–∞ [2]: 170 ng·h/mL
- C max [2]: 123 ng/mL
- T max [2]: 15 min
- t 1/2 [2]: 1.90 h
- AUC0–4 [3]: 3,766 ± 896 ng·h/ml
- C max [3]: 4,231 ± 1,208 ng/ml
- T max [3]: 12.6 ± 3.6 min
- t 1/2 [3]: 36 ± 3.6 min
- time in which C max was achieved [3]: < 15 min
- Working solution stability, measured concentration Mean ± SD ([4]; nominal 1 ng/ml): 1.034 ± 0.08 ng/mL
- Working solution stability, measured concentration Mean ± SD ([4]; nominal 400 ng/ml): 409.37 ± 37.98 ng/mL
- concentration at 15 min ([5]; 10-mg/kg dose, 15 min after administration, single sample, read-out: plasma concentration of an unknown sample): 298 ng/mL
- AUC(0-inf) [5, 6]: 463 ± 167 ng·h/mL
- AUC(0-t) [5, 6]: 457 ± 165 ng·h/mL
- Cmax [5, 6]: 227 ± 98.8 ng/mL
- half-life [5, 6]: 74.4 ± 13.2 min
- CL/F ([5]; rats, 10 mg/kg, n = 6, mean ± SD, read-out: CL_F (apparent clearance) (converted)): 400 mL/min/kg
- MRT ([5]; rats, 10 mg/kg, n = 6, mean ± SD, read-out: MRT (mean residence time)): 1.89 ± 0.18 h
- Vd/F ([5]; rats, 10 mg/kg, n = 6, mean ± SD, read-out: Vz_F (apparent volume of distribution)): 43.3 ± 17.9 L/kg
- Tmax ([5]; rats, 10 mg/kg, n = 6, median (range)): 30 min
